Assays:
[1] = biological target: [NEK7]-[compound of formula (I)]-[CRBN/DDB1] complex (Homo sapiens, UniProt Q8TDX7+Q96SW2); assay: HTRF ternary complex assay; assay type: binding; conditions: dose-response, 180 min at 25° C.; read-out: HTRF ternary complex Average pEC50 by molecule (converted)
Outline: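 Mix of 24 nM NEK7, 52.8 nM 6×His-CRBN/Strep-DDB1, 3 nM streptavidin-Eu cryptate and 6.67 nM anti-6×His-d2 in PPI Europium detection buffer with 1 mM DTT, dose-response compound, 0.5% DMSO, 180 min at 25° C. TR-FRET (665/620) read, normalized to DMSO background, Hill-slope fit gave EC50/pEC50.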

NEK7 protein = NEK7 protein (Homo sapiens, UniProt Q8TDX7+Q96SW2); assay: NEK7 protein degradation determined by Western blot in human PBMC-derived macrophages; assay type: cell-based; conditions: 24 h; for remaining NEK7 protein amount at 10 µM: densitometric values normalized to loading control, read-out: Amount of NEK7 protein (% of DMSO control); for NEK7 protein degradation (Western blotting, in words): FIG. 1
Sequence of NEK7 protein (Q8TDX7 whole entry): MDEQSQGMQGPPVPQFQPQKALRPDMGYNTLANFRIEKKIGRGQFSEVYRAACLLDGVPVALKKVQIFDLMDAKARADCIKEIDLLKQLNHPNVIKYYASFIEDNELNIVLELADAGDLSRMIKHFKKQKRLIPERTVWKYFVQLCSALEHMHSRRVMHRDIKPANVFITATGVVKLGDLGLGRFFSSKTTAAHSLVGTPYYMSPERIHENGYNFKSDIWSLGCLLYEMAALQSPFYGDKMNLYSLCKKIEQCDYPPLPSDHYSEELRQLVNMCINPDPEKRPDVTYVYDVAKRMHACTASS
Sequence of NEK7 protein (Q96SW2 whole entry): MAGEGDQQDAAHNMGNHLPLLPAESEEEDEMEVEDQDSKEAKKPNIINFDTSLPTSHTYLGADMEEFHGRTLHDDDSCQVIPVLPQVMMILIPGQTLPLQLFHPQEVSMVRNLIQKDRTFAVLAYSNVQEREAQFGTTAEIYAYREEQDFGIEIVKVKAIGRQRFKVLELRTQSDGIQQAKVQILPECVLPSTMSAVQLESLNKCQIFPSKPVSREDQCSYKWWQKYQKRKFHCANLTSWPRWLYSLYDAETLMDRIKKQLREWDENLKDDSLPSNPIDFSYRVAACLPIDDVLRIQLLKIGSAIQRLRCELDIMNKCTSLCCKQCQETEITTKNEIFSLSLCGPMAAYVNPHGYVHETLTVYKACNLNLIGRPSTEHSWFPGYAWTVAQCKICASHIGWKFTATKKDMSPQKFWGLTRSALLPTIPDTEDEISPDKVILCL
Sequence of NEK7 protein (Q16531 whole entry partner): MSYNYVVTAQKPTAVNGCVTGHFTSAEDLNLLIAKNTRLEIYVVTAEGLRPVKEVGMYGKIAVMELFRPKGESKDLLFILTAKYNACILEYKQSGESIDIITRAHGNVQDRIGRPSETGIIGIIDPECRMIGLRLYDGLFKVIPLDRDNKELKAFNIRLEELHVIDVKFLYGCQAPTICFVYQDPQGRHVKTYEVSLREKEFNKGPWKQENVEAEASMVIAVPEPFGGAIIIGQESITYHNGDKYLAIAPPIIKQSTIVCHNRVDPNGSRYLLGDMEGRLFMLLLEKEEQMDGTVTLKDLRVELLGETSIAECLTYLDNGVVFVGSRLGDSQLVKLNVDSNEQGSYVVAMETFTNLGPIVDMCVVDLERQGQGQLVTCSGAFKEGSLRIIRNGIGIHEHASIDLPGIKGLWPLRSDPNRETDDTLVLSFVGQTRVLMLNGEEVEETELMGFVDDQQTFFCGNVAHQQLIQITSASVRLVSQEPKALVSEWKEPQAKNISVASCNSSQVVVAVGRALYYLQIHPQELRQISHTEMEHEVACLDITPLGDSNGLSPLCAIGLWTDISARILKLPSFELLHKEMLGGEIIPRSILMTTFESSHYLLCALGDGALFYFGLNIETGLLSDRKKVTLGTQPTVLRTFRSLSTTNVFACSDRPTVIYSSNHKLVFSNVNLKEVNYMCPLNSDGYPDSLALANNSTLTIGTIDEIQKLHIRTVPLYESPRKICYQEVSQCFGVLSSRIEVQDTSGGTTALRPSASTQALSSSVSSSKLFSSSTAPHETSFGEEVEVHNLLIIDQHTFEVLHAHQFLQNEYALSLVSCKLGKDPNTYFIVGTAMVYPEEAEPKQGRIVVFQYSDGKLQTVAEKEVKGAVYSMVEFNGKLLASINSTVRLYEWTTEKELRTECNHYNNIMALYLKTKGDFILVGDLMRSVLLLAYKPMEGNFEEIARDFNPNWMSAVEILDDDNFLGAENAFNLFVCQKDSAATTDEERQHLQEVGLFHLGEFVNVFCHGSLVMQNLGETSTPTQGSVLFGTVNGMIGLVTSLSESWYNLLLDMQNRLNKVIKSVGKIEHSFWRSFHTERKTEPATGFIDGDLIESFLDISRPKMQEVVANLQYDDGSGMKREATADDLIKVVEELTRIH
Description: Macrophages were differentiated from human PBMCs isolated from buffy coats from healthy donors.
Buffy coats were diluted 1:1 (v/v) with DPBS (Sigma-Aldrich) in falcon tubes. After reconstitution, suspension was carefully layered on Histopaque-1077 solution (Sigma-Aldrich) and centrifuged (760×g, RT, 20 min; Brakes Off). PBMCs were collected and washed with DPBS (3× at 350×g, RT, 8 min and 1× at 200×g, RT, 10 min; Brakes On). Subsequently, cells were resuspended in appropriate volume of RPMI 1640 medium (Gibco) supplemented with 10% of heat-inactivated FBS (Gibco) and 1% of Penicillin-Streptomycin Solution 100x (Biowest). Cell viability was measured using trypan blue solution (Sigma-Aldrich).
10×10^6 of PBMCs per well were seeded on 6-well plates in complete medium supplemented with 10 ng/ml of M-CSF growth factor (R&D Systems). Differentiation was conducted for a week with medium replacement every 2-3 days. Differentiation of PBMCs into mature macrophages was confirmed by microscopic evaluation and FACS surface staining for the following markers: CD11b, CD14, CD16 (BD Pharmingen). Differentiated macrophages were subjected on NLRP3 inflammasome activation assay.
Human PBMC-derived macrophages were pre-treated for 24 h with exemplary compounds at the specific concentrations. Dilutions of tested compound were prepared in DMSO. Afterwards cells were primed with 1 μg/ml of LPS (Invivogen) for 3 h and NLRP3 inflammasomes were activated with 5 μM of nigericin solution (Invivogen) for 1 h. Supernatants were centrifuged and stored for ELISA assays and cell lysates were prepared for Western blotting analysis.
Cell lysates from Human PBMC-derived macrophages were prepared by direct lysis in 40 μl RIPA lysis buffer (50 mM Tris·HCl pH 7.4, 150 mM NaCl, 1% NP-40, 0.25% sodium deoxycholate, 0.1% SDS and 1 mM EDTA) supplemented with protease and phosphatase inhibitors (cOmplete EDTA-free Protease Inhibitor Cocktail, Roche; Halt™ Phosphatase Inhibitor Cocktail, Thermo Scientific). Subsequently, lysates were snap frozen in liquid nitrogen and stored in −20° C. Following thawing, lysates were centrifuged at 4° C., 19 000×g for 15 min for supernatants collection. The protein concentration in each sample was determined by BCA method (Pierce BCA Protein Assay Kit, Thermo Fischer Scientific). The absorbance was measured using CLARIOstar Multimode Plate Reader at 562 nm. SDS-PAGE samples were prepared by mixing the lysates with 5×SB and RIPA buffer. Denaturation of the samples was performed by incubation at 95° C. for 5 minutes.
The protein samples were resolved on 4-20% TGX Stain-Free™ protein gels (Bio-Rad) and transferred onto nitrocellulose membranes (Bio-Rad) using Trans-Blot® Turbo system (Bio-Rad). Membranes were blocked in 5% non-dried milk (NFM) in TBS-T (10 mM Tris, 150 mM NaCl, 0.1% Tween-20) for 1 h at room temperature (RT). Membranes were incubated with primary antibodies for NEK7 (O/N, 4° C.) and loading control—β-Actin (1 h, RT) diluted in 5% NFM in TBS-T, followed by incubation with the appropriate horseradish peroxidase (HRP) conjugated secondary antibody diluted in 5% NFM in TBS-T for 1 h in RT. Between each antibody incubation, the membranes were washed in TBS-T. Membranes were developed using SuperSignal West Pico PLUS chemiluminescent substrate (ThermoScientific). Membrane images were captured using Chemi Doc Imager. The analysis was performed in Image Lab software. Densitometric values for NEK7 protein were normalized to the loading control and calculated as a relative to the cells treated with DMSO control.
NEK7-HiBiT degradation results were further confirmed for selected compounds in human PBMC-derived macrophages.

Sequence of [NEK7]-[compound of formula (I)]-[CRBN/DDB1] complex (Q8TDX7 whole entry): as the sequence (Q8TDX7 whole entry) above
Sequence of [NEK7]-[compound of formula (I)]-[CRBN/DDB1] complex (Q96SW2 whole entry): as the sequence (Q96SW2 whole entry) above
Sequence of [NEK7]-[compound of formula (I)]-[CRBN/DDB1] complex (Q16531 whole entry partner): as the sequence (Q16531 whole entry partner) above

Compound	EC50 [1] [nM]	remaining NEK7 protein amount at 10 µM (NEK7 protein) [%]	NEK7 protein degradation (Western blotting, in words) (NEK7 protein)
O=C1CCC(N2Cc3cc(-c4ccccn4)ccc3C2=O)C(=O)N1 (centres unmarked) [2(2), 3-(1-oxo-5-(pyridin-2-yl)isoindolin-2-yl)piperidine-2,6-dione]	316 to 1000	40 to 75	–
O=C1CCC(N2Cc3cc(-c4ccc(-c5ccccc5)cn4)ccc3C2=O)C(=O)N1 (centres unmarked) [4(2), 3-(1-oxo-5-(5-phenylpyridin-2-yl)isoindolin-2-yl)piperidine-2,6-dione]	100 to 316	40 to 75	–
Cc1c(C2CCCCN2)ccc2c1CN(C1CCC(=O)NC1=O)C2=O (centres unmarked) [Compound 19, 3-(4-methyl-1-oxo-5-(piperidin-2-yl)isoindolin-2-yl)piperidine-2,6-dione]	> 3160	40 to 75	–
O=C1CCC(N2Cc3cc(C4CCCCN4)c(F)cc3C2=O)C(=O)N1 (centres unmarked) [Compound 23, 3-(6-fluoro-1-oxo-5-(piperidin-2-yl)isoindolin-2-yl)piperidine-2,6-dione]	> 3160	40 to 75	–

More lines, now with the values ahead:

EC50 [1] [nM]	remaining NEK7 protein amount at 10 µM (NEK7 protein) [%]	NEK7 protein degradation (Western blotting, in words) (NEK7 protein)	Compound
316 to 1000	10 to 40	NEK7 protein degradation	O=C1CCC(N2Cc3cc(C4CCCCN4)ccc3C2=O)C(=O)N1 (centres unmarked) [Compound 2, 3-(1-oxo-5-(piperidin-2-yl)isoindolin-2-yl)piperidine-2,6-dione]
316 to 1000	≤ 10	NEK7 protein degradation	CC1c2cc(C3CCCCN3)ccc2C(=O)N1C1CCC(=O)NC1=O (centres unmarked) [Compound 25, 3-(3-methyl-1-oxo-5-(piperidin-2-yl)isoindolin-2-yl)piperidine-2,6-dione]
316 to 1000	≤ 10	NEK7 protein degradation	CC1c2cc(C3CCCCO3)ccc2C(=O)N1C1CCC(=O)NC1=O (centres unmarked) [Compound 64, 3-(3-methyl-1-oxo-5-(tetrahydro-2H-pyran-2-yl)isoindolin-2-yl)piperidine-2,6-dione]
